Assay results published in patent US8637526B2, “Pyrazolopyrimidine JAK inhibitor compounds and methods” (Genentech, Inc., priority 2008, dated 2014).

Assays:
[1] = system: NK92 cells; assay: IL-12-stimulated STAT4 phosphorylation in NK92 cells (TYK2-dependent signaling, MSD); type: cell-based; settings: NK92, 1 h, read-out: IL12-pSTAT4 NK92 EC50
Description: The activities of compounds were determined in cell-based assays that are designed to measure TYK2-dependent signaling. Compounds were serially diluted in DMSO and incubated with NK92 cells (American Type Culture Collection (ATCC); Manassas, Va.) in 96-well microtiter plates in RPMI medium at a final cell density of 100,000 cells per well and a final DMSO concentration of 0.57%. Human recombinant IL-12 (R&D systems; Minneapolis, Minn.) was then added at a final concentration of 10 ng/mL to the microtiter plates containing the NK92 cells and compound and the plates were incubated for 1 hr at 37° C. Compound-mediated effects on STAT4 phosphorylation were then measured in the lysates of incubated cells using the Meso Scale Discovery (MSD) technology (Gaithersburg, Md.) according to the manufacturer's protocol and EC50 values were determined

[2] = system: TF-1 cells; assay: IL-6-stimulated STAT3 phosphorylation in TF-1 cells (JAK1-dependent signaling, MSD); type: cell-based; settings: Homo sapiens, TF-1, 0.5 h, read-out: IL6-pSTAT3 TF1 EC50
Description: (§1) The activities of compounds were determined in cell-based assays that are designed to measure JAK1 or JAK2-dependent signaling. Compounds were serially diluted in DMSO and incubated with TF-1 cells (American Type Culture Collection (ATCC); Manassas, Va.) in 384-well microtiter plates in OptiMEM medium without phenol red, 1% Charcoal/Dextran stripped FBS, 0.1 mM NEAA, 1 mM sodium pyruvate (Invitrogen Corp.; Carlsbad, Calif.) at a final cell density of 100,000 cells per well and a final DMSO concentration of 0.2%. Human recombinant IL-6 (R&D systems; Minneapolis, Minn.) or EPO (Invitrogen Corp.; Carlsbad, Calif.) was then added at a final concentration of 30 ng/mL or 10 Units/mL, respectively, to the microtiter plates containing the TF-1 cells and compound and the plates were incubated for 30 min at 37° C. Compound-mediated effects on STAT3 or STATS phosphorylation were then measured in the lysates of cells incubated in the presence of IL-6 or EPO, respectively, using the Meso Scale Discovery (MSD) technology (Gaithersburg, Md.) according to the manufacturer's protocol and EC50 values were determined.

[3] = system: Set-2 cells, which express the JAK2V617F mutant protein; assay: STAT5 phosphorylation in Set-2 cells (JAK2-dependent signaling, MSD); type: cell-based; settings: Homo sapiens, SET-2, 1 h, read-out: pSTAT5 SET2 EC50
Description: The activities of compounds were determined in cell-based assays that are designed to measure JAK2-dependent signaling or proliferation. Compounds were serially diluted in DMSO and incubated with Set-2 cells (German Collection of Microorganisms and Cell Cultures (DSMZ); Braunschweig, Germany), which express the JAK2V617F mutant protein, in 96-well microtiter plates for 1 hr at 37° C. in RPMI medium at a final cell density of 100,000 cells per well and a final DMSO concentration of 0.57%. Compound-mediated effects on STATS phosphorylation were then measured in the lysates of incubated cells using the Meso Scale Discovery (MSD) technology (Gaithersburg, Md.) according to the manufacturer's protocol and EC50 values were determined. Alternatively, serially diluted compounds were added to 384-well microtiter plates in RPMI medium with 10% fetal bovine serum (Invitrogen Corp.; Carlsbad, Calif.) at a final cell density of 2500 cells per well and a final DMSO concentration of 0.3% and incubated at 37° C. for 72 hours. Cell viability was then determined using the CellTiter-Glo® Luminescent Cell Viability Assay according to the manufacturer's protocol (Promega; Madison, Wis.) and EC50 values were determined.

[4] = system: TF-1 cells; assay: EPO-stimulated STAT5 phosphorylation in TF-1 cells (JAK2-dependent signaling, MSD); type: cell-based; settings: Homo sapiens, TF-1, 0.5 h, read-out: EPO pSTAT5 TF1 EC50
Description: as §1

[5] = target: human JAK1 kinase domain (Homo sapiens (Human), UniProt P23458); assay: JAK1 Inhibition Assay Protocol (Caliper LabChip peptide phosphorylation); type: biochemical; settings: enzymatic activity, 25 uM ATP
Text: The catalytically active kinase domain of human JAK1, JAK2, JAK3 or TYK2 was purified from extracts of SF9 insect cells infected with a recombinant baculovirus expression vector encoding the human JAK1, JAK2, JAK3 or TYK2 kinase domains (JAK1 amino acid residues N852-D1154 according to the numbering of GenBank sequence accession number P23458, JAK2 amino acid residues D812-G1132 according to the numbering of GenBank sequence accession number NP_004963.1; JAK3 amino acid residues S783-S1124 according to the numbering of GenBank sequence accession number P52333, and TYK2 amino acid residues N873-C1187 according to the numbering of GenBank sequence accession number P29597). The activity of the JAK1, JAK2, JAK3 or TYK2 kinase domains can be measured by a number of direct and indirect methods, including quantification of phosphorylation of peptide substrates derived from the human JAK3 protein (Saltzman et al., Biochem. Biophys. Res. Commun. 246:627-633 (2004)). The activity of the JAK1, JAK2, JAK3 or TYK2 kinase domains was measured in vitro by monitoring phosphorylation of JAK3 derived peptides using the Caliper LabChip technology.
(§2) The activity of the isolated JAK1 or TYK2 kinase domain was measured by monitoring phosphorylation of a peptide derived from JAK3 ([…] fluorescently labeled on the N-terminus with 5-carboxyfluorescein using the Caliper LabChip technology (Caliper Life Sciences, Hopkinton, Mass.). […] Reactions were incubated at 22° C. in 384-well polypropylene microtiter plates for 30 minutes and then stopped by addition of 25 uL of an EDTA containing solution (100 mM Hepes pH 7.2, 0.015% Brij-35, 150 mM EDTA), resulting in a final EDTA concentration of 50 mM. After termination of the kinase reaction, the proportion of phosphorylated product was determined as a fraction of total peptide substrate using the Caliper LabChip 3000 according to the manufacturer's specifications. Ki values were then determined using the Morrison tight binding model (Morrison, J. F., Biochim. Biophys. Acta. 185:269-296 (1969); William, J. W. and Morrison, J. F., Meth. Enzymol., 63:437-467 (1979)).

[6] = target: human JAK3 kinase domain (Homo sapiens (Human), UniProt P52333); assay: biochemical; type: biochemical; settings: enzymatic activity, 5 uM ATP; read-out: JAK3 Ki
Description: The activity of the JAK1, JAK2, JAK3 or TYK2 kinase domains was measured in vitro by monitoring phosphorylation of JAK3 derived peptides using the Caliper LabChip technology.
as §2, with “JAK3” for “JAK1 or TYK2”, “specifications.” for “specifications. Ki values were then determined using the Morrison tight binding model (Morrison, J. F., Biochim. Biophys. Acta. 185:269-296 (1969); William, J. W. and Morrison, J. F., Meth. Enzymol., 63:437-467 (1979)).”

human JAK3 kinase domain, sequence (P52333 783-1124): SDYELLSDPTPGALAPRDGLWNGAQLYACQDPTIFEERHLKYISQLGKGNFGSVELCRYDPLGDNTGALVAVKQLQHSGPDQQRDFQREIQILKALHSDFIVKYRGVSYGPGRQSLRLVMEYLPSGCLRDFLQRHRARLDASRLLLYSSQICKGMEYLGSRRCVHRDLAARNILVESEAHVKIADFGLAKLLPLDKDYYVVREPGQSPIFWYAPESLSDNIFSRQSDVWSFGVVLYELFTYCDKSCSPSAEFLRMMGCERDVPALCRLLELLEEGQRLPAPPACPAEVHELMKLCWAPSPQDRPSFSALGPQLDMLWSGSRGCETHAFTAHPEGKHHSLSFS
human JAK1 kinase domain, sequence (P23458 852-1154): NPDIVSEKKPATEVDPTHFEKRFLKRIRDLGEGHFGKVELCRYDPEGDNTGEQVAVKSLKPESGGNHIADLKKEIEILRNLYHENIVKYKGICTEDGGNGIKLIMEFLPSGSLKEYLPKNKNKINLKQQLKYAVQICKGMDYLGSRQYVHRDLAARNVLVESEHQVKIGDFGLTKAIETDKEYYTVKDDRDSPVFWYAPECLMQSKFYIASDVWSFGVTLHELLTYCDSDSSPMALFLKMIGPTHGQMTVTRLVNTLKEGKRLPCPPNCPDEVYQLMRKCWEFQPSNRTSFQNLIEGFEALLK

SMILES | EC50 [1] [nM] | EC50 [2] [nM] | EC50 [3] [nM] | EC50 [4] [nM] | Ki [5] [nM] | Ki [6] [nM]
Cc1ccc(C)c(-c2nn(C)cc2NC(=O)c2cnn3ccc(N)nc23)c1 [Example 225, 5-amino-N-(3-(2,5-dimethylphenyl)-1-methyl-1H-pyrazol-4-yl)pyrazolo[1,5-a]pyrimidine-3-carboxamide] | 119 | 130 | 12.8 |  |  | 
Nc1ccn2ncc(C(=O)Nc3conc3-c3cccc(Cl)c3)c2n1 [Example 250, 5-Amino-pyrazolo[1,5-a]-pyrimidine-3-carboxylic acid [3-(3-chloro-phenyl)-isoxazol-4-yl]-amide] | 105 | 839 |  | 340 | 28.4 | 55.6
